In patent US10526327B2, “Histone demethylase inhibitors” (CELGENE QUANTICEL RESEARCH, INC., priority 2013, dated 2020):

The molecules below were run on KDM5A/B (assay: In vitro cell-based assay: immuno-blot quantification of tri-methyl H3K4 in ZR-75-1 breast cancer cells). Details: 72 hours, tri-methyl H3K4 level relative to GAPDH, percent of DMSO, read-out: Cellular IC50.
Outline: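 ZR-75-1 breast cancer cells treated 72 h with 11-point compound dilutions (1250 μM to 10 nM). H3K4me3 quantified by infrared immunoblot densitometry, normalized to GAPDH and expressed as percent of DMSO control; relative IC50 from curve fit.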

Row | IC50 | SMILES
1 | > 10 µM | CCOc1nc(O)c2ccncc2n1 [Example 2, 2-ethoxypyrido[3,4-d]pyrimidin-4-ol]
2 | > 10 µM | Oc1nc(Oc2ccccc2)nc2cnccc12 [Example 34, 2-phenoxypyrido[3,4-d]pyrimidin-4-ol]

Row | SMILES | IC50
3 | CC(C)(O)CCOc1nc(O)c2ccncc2n1 [Example 24, 2-(3-hydroxy-3-methylbutoxy)pyrido[3,4-d]pyrimidin-4-ol] | > 10 µM
